Results as given in US20180320177A1, “COMPOSITIONS AND METHODS FOR THE TREATMENT OF LIVER FIBROSIS” (UNIVERSITY OF CONNECTICUT, priority 2015, published 2018).

Columns and labels:
[1] = test system: CCl4-induced inflammation; experiment: CCl4-induced inflammation in mouse liver; type: in vivo; conditions: CCl4-treated mice (FIG. 4C, 4D)
Experimental: Animal Care: All animal care and experimental procedures were approved by the Institutional Animal Care and Use Committee at the University of Connecticut. Shp^−/− mice were described previously. Hmgb2^−/− mice were obtained from Dr. Stella Tsirka at Stony Brook University. C57BL/6J mice were purchased from Jackson Laboratory. All mice were maintained on a 12-h light/dark cycle with free access to food and water unless otherwise indicated. For CCl4 treatment, CCl4 (Sigma) was dissolved in corn oil and administered to mice at a dose of 850 μl/kg BW by intraperitoneal injection (IP) twice a week for 6 or 10 weeks with or without ICM. Age-matched control mice were treated with a corn oil vehicle. For CCl4+ICM treatment, mice were treated with CCl4 for 2 weeks and then ICM (Department of Pharmaceutical Sciences at UConn) was dissolved in PEG (Sigma) and treated with mice (10 mg/kg) every day for 4 or 8 weeks in combination with CCl4. To induce overexpression of HMGB2 in liver, AAV8-Hmgb2 or a control AAV8-GFP was given to mice by tail vein injection at a dose of 5×10^10 GC. To knockdown HMGB2 in mouse livers, AAV-shHmgb2 or a control AAV-shGFP was delivered to mice at a dose of 2×10^10 GC by tail vein injection. One week later, mice injected with AAVs were treated with CCl4 or CCl4 +ICM as described above and sacrificed. […]

[2] = test system: MMP and Rho signaling; experiment: Western blot of MMP and Rho signaling in TIC cells; type: cell-based; conditions: TIC cells (FIG. 7E)
Experimental: (§1) Western Blotting: Total protein lysates were prepared from livers and cells in lysis buffer containing 50 mM Tris, pH 8.0, 1% Nonidet™ P-40, 150 mM NaCl, 0.5% sodium deoxycholate, 0.1% SDS with protease inhibitors (Thermo Fisher Scientific) and subjected to immunoblotting. Nuclear and cytoplasmic subcellular fractions were prepared using NE-PER nuclear and cytoplasmic extraction reagents (Pierce) according to the manufacturer's instructions. The blot was incubated with a primary antibody, followed by a secondary antibody conjugated to horseradish peroxidase. ECL kit (Pierce) was used to detect the reactivity. The following antibodies were obtained from Cell Signaling Technology: HMGB2, HMGB1, AKT, p-AKT, mTOR, p-mTOR, ERK1/2, pERK1/2, Raptor, Rictor, p53, p21, p-Bad, Smad4, p-Smad2/3, Lamin A/C, a-SMA, MMP2, MMP9, TIMP1, RhoA, Rho-GTP, Cdc42, Rac1/2/3. Anti-HA antibody and anti-beta actin antibody were purchased from Sigma and Santa Cruz Biotechnology, respectively.
(§2) Cell Lines The LX-2 human stellate cell line was maintained in Dulbecco's Modified Eagle's Medium (DMEM) supplemented with 2% fetal bovine serum (FBS), 100 IU/ml penicillin, and 100 μg/ml streptomycin. Human hepatocellular carcinoma (HCC) MHCC97H cells were maintained in DMEM supplemented with 10% FBS, 100 IU/ml penicillin, and 100 μg/ml streptomycin, 1 mM HEPES, 1 mM sodium pyruvate, 2 mM L-glutamine. Tumor-initiating (TIC) cells were obtained from Dr. Hidekazu Tsukamoto at University of Southern California and were maintained in 1:1 DMEM:F12 supplement with 100 U/ml penicillin and 100 μg/ml streptomycin, 2 mM glutamine, 20 ng/ml mouse EGF, 10 nM dexamethasone, 1× embryomax nucleotides. All the cells were maintained at 37° C. humidified atmosphere with 5% CO2. TIC cells were infected with Hmgb2 shRNA lentivirus for 48 hr, and treated with 500 ng/ml puromycin for 2 weeks. The stable cells were used for migration and invasion assay, as well as western blot.

[3] = biological target: T1, HMGB2 (Homo sapiens, UniProt P26583); experiment: Western blot of HMGB2 protein in LX-2 and Huh7 cells treated with ICM; type: cell-based; design: endogenous in cells; host or cells: LX-2, Huh7; conditions: for HMGB2 protein: fresh media every day for 3 days (FIG. 18 left)
T1 sequence (P26583 1-209): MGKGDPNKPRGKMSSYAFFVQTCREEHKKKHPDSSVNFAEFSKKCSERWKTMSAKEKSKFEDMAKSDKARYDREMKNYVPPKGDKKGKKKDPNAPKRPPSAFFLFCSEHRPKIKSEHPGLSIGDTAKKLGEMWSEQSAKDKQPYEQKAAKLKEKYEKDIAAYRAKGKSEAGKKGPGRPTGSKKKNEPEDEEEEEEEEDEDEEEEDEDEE
Experimental: as §1, §2

Compound | inflammatory response [1] | MMP signaling [2] | Rho signaling [2] | HMGB2 protein ([3]; Huh7 cells) | cytoplasm HMGB2 protein ([3]; LX2 cells (FIG. 5C)) | HMGB2 protein ([3]; LX-2 cells)
CC1(C)Oc2cc(O)ccc2C2C1=CCn1c(=O)n(-c3ccccc3)c(=O)n12 (stereo not drawn) [ICM, inflachromene] | decrease inflammatory response | decreased | decreased | dose-dependently decreased | reduces cytoplasm HMGB2 protein | dose-dependently decreased
shHMGB2: small hairpin RNA against HMGB2 (SEQ ID NO: 8), delivered by AAV or lentivirus (CCGGGCTCAACATTAGCTTCAGTATCTCGAGATACTGAAGCTAATGTTGAGCTTTTTG) | decrease inflammatory response | decreased | decreased |  |  | 
